Experimental data from patent publication US5571788A, “Stable calcitonin pharmaceutical compositions” (Ciba-Geigy Corporation, priority 1994, dated 1996).

What was measured:
[1] = Ability of an acid to produce a stable hCT solution (stored 24 hours at 25° C., solution remains clear); assay type: physicochemical; conditions: aqueous hCT solution with the acid, no salt or buffer
[2] = Chemical stability tests (Roger's test); assay type: physicochemical; conditions: 3.3 mg/ml hCT, 0.5% methyl cellulose, 0.02% benzethonium chloride, 0.001% acetic acid; in 5 years, storage at 10° C.
Procedure: A solution of hCT is made containing 3.3 mg/ml hCT, 0.5% methyl cellulose, 0.02% benzethonium chloride and 0.001% acetic acid. Chemical stability tests (Roger's test) predicted only 0.02% chemical decomposition of the hCT in 5 years for storage at 10° C.

[3] = Absorption spectra and HPLC of stored hCT solutions; assay type: physicochemical; conditions: hCT stored in aqueous solutions of Example 1
[4] = SUNTEST accelerated light exposure, stability against fibril formation; assay type: physicochemical; conditions: Example 3 solutions with 0.5% hydroxypropylmethylcellulose; after 24 hours at 47° C. in SUNTEST machine
[5] = Extrapolated time of fibrillation (ln/ln plot of fibrillation time against hCT concentration); assay type: physicochemical; conditions: 5-9 mg/ml hCT in 0.001% acetic acid, 4° C.; ln/ln plot from solutions up to 100 mg/ml hCT
Procedure: The stability of the solution is dependent on the concentration. We have found a linear correlation between the natural logarithm of fibrillation time and the natural logarithm of hCT concentration at a given temperature. From measurements on hCT solutions with concentrations up to 100 mg/ml hCT and using the 1n/1n plot, stability of more than 5 years at 4° C. is predicted for solutions with 5-9 mg/ml hCT in 0.001% acetic acid.
Solutions of hCT are made using different concentrations of methyl cellulose (MC) and hydroxypropyl methyl cellulose (HPMC) with and without 0.01% benzethonium chloride (BTC), in one case also with 0.001% acetic acid (AA) and in one case using 0.5% dextran (D). The extrapolated time of fibrillation in years is given for hCT concentration of 3.3 mg/ml and 6.6 mg/ml.

[6] = Long-time hCT stability of aqueous solutions (solution remains clear, free of fibrils); conditions: for time solution is stable: Example 1 repeated (5 mg/ml hCT) with acetic acid replaced by the named acid

acid forms stable hCT solution [1] | time solution is stable [6] | Molecule | other results
– | – | human calcitonin [hCT] | predicted chemical decomposition of the hCT [2]: 0.02%; change in hCT properties (absorption spectra and HPLC) [3]: no change in hCT properties; stability against fibril formation under accelerated light exposure [4]: stable against fibril formulation; predicted stability of hCT solution [5]: more than 5 years; time solutions are stable ([6]; Example 3: Example 1 solutions (5 mg/ml hCT, acetic acid) plus 0.5% hydroxypropylmethylcellulose, 4° C., 22° C. and 37° C., in the dark or in daylight): more than 3.5 months
form stable solutions | – | O=C(O)CN(CCN(CC(=O)O)CC(=O)O)CC(=O)O [ethylene - diamine tetraacetic acid] | –
do not form stable solutions | – | O=C(O)/C=C\C(=O)O [maleic acid] | –
form stable solutions | over 4 days | O=C(O)CCCCC(=O)O [adipic acid] | –
do not form stable solutions | – | N[C@H](CCC(=O)O)C(=O)O [D-glutamic acid] | –
form stable solutions | over 4 days | O=C(O)CC(=O)O [malonic acid] | –
form stable solutions | over 4 days | O=C(O)CC(O)(CC(=O)O)C(=O)O [citric acid] | –
form stable solutions | over 4 days | O=C1O[C@H]([C@@H](O)CO)C(O)=C1O [ascorbic acid] | –
form stable solutions | – | CC(=O)O [acetic acid] | stabilising conditions for hCT solution ([6]; acid concentration 0.001%): best case
– | over 4 days | O=C(O)CCC(=O)O [succinic acid] | –
– | over 4 days | N[C@@H](CCC(=O)O)C(=O)O [L-glutamic acid] | –
do not form stable solutions | – | N[C@@H](CC(=O)O)C(=O)O [aspartic acid] | –

Molecule | acid forms stable hCT solution [1] | time solution is stable [6] | other results
O=S(=O)(O)O [sulphuric acid] | do not form stable solutions | – | –
Oc1ccccc1 [phenol] | form stable solutions | – | –
O=C(O)C(O)C(O)C(=O)O (racemic) [DL-tartaric acid] | form stable solutions | over 4 days | –
O=C(O)C(O)C(O)C(=O)O [L-α-tartaric acid] | form stable solutions | over 4 days | –
O=CO [formic acid] | form stable solutions | over 4 days | –
O=C(O)[C@H](O)[C@@H](O)[C@H](O)[C@H](O)CO [gluconic acid] | do not form stable solutions | – | –
Cl [hydrochloric acid] | form stable solutions | over 4 days | –
O=C(O)CCCC(=O)O [glutaric acid] | form stable solutions | over 4 days | –
